# How the values were obtained:
# Assay type in all cases: functional
# SW-620 = assay: Cytotoxicity against human SW620 cells; conditions: read-out: ED50 (the source's name)
# HCT-15 = assay: Cytotoxicity against human HCT15 cells; conditions: read-out: ED50 (the source's name)
# HCT-116 = assay: Cytotoxicity against human HCT116 cells; conditions: read-out: ED50 (the source's name)
# KM12 = assay: Cytotoxicity against human KM12 cells; conditions: read-out: ED50 (the source's name)
# HT-29 = assay: Cytotoxicity against human HT-29 cells; conditions: read-out: ED50 (the source's name)
# COLO 205 = assay: Cytotoxicity against human COLO205 cells; conditions: read-out: ED50 (the source's name)
# UACC-62 = assay: Cytotoxicity against human UACC62 cells; conditions: read-out: LC50 (the source's name)
# SK-MEL-28 = assay: Cytotoxicity against human SK-MEL-28 cells; conditions: read-out: LC50 (the source's name)
# SK-MEL-5 = assay: Cytotoxicity against human SK-MEL-5 cells; conditions: read-out: LC50 (the source's name)
smiles,measurement,setting,value
COc1cc(O)c(C(=O)/C=C/c2ccc(O)cc2)cc1Oc1ccc(/C=C/C(=O)c2ccc(O)cc2O)cc1 [RHUSCHALCONE III],EC50,SW-620,3 µg/mL
same,EC50,HCT-15,4 µg/mL
same,EC50,HCT-116,5 µg/mL
same,EC50,KM12,4 µg/mL
same,EC50,HT-29,3 µg/mL
same,EC50,COLO 205,4 µg/mL
O=C(/C=C/c1ccc(Oc2cc(C(=O)/C=C/c3ccc(O)cc3)c(O)cc2O)cc1)c1ccc(O)cc1O [RHUSCHALCONE II],EC50,HCT-116,15 µg/mL
same,EC50,KM12,19 µg/mL
same,EC50,HT-29,14 µg/mL
same,EC50,COLO 205,15 µg/mL
COc1cc(O)c(C(=O)/C=C/c2ccc(O)cc2)cc1Oc1ccc(C(=O)/C=C/c2ccc(O)cc2)c(O)c1 [RHUSCHALCONE IV],CC50,UACC-62,4.6 µg/mL
same,CC50,SK-MEL-28,4.6 µg/mL
same,CC50,SK-MEL-5,4.8 µg/mL
same,EC50,COLO 205,23 µg/mL
COc1ccc(C(=O)/C=C/c2ccc(Oc3cc(C(=O)/C=C/c4ccc(O)cc4)c(O)cc3OC)cc2)c(O)c1 [RHUSCHALCONE I],EC50,SW-620,42 µg/mL
same,EC50,HCT-15,51 µg/mL
same,EC50,HCT-116,5 µg/mL
same,EC50,KM12,17 µg/mL
same,EC50,HT-29,3 µg/mL
same,EC50,COLO 205,11 µg/mL
O=C(/C=C/c1ccc(O)c(-c2cc(C(=O)/C=C/c3ccc(O)cc3)c(O)cc2O)c1)c1ccc(O)cc1O [RHUSCHALCONE VI],EC50,HCT-116,5 µg/mL
same,EC50,HT-29,10 µg/mL
same,EC50,COLO 205,24 µg/mL

# From ChEMBL document CHEMBL1159379, “Rhuschalcones II-VI, five new bichalcones from the root bark of Rhus pyroides” (2003)
